We go through one compound from ChEMBL document CHEMBL1141234, “Synthesis and SAR of highly potent dual 5-HT1A and 5-HT1B antagonists as potential antidepressant drugs” (Bioorg Med Chem Lett, 2005).

Assay [1] has as its target T1, 5-hydroxytryptamine receptor 1B (Homo sapiens, UniProt P28222). The assay is described as follows: Inhibitory activity against human recombinant 5HT1B receptor co-expressed with G-protein chimera Gqo5 in HEK293 cells by FLIPR. It is filed as functional, cell-based.
Assay [2] has as its target T2, 5-hydroxytryptamine receptor 1A (Rattus norvegicus, UniProt P19327).
T2 sequence (P19327 whole entry): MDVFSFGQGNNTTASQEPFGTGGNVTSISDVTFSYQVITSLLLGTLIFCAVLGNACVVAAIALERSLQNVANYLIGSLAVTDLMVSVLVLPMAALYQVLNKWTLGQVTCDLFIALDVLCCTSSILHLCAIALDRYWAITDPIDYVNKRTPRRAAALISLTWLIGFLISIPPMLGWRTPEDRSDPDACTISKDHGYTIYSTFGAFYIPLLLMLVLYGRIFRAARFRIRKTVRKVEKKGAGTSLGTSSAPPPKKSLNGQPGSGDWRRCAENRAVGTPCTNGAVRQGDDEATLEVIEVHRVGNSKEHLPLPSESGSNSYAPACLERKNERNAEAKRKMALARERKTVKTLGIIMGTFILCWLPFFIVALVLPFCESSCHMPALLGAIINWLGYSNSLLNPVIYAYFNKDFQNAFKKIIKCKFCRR
Briefly: Binding affinity for rat 5HT1A receptor.

The target of assay [3] is 5-hydroxytryptamine receptor 1B (Rattus norvegicus, UniProt P28564). Briefly: Binding affinity for rat 5HT1B receptor.
The species named for the next assay is Rattus norvegicus. Briefly: Electrically stimulated [3H]5-HT release from rat brain cortical slices at 0.1 uM. It is filed as functional, tissue-based.
Assay [4] concerns the target T3, 5-hydroxytryptamine receptor 1A (Homo sapiens) (UniProt P08908).
T3 sequence (whole entry): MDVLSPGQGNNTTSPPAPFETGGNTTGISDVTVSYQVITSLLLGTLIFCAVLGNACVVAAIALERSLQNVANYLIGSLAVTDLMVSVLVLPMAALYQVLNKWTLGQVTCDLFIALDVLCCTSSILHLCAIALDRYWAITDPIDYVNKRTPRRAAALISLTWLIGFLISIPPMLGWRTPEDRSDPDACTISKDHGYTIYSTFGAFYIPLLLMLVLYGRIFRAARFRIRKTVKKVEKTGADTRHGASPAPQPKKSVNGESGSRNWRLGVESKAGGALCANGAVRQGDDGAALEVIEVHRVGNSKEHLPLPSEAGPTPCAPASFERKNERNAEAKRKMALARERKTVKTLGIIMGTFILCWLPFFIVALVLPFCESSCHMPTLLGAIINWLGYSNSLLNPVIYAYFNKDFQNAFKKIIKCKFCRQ
Briefly: Intrinsic activity for 5HT1A receptor in [35S]GTP-gamma-S assay. Format: functional.

The target in assay [5] is 5-hydroxytryptamine receptor 5A (Homo sapiens, UniProt P47898). The assay is described as follows: Inhibitory activity against 5HT5A receptor.
The subject of the next assay is Mus musculus. Briefly: In vivo mouse forced swim test at 30 mg/kg, ip. Format: functional, organism-based. More on the design: dose 30 mg/kg.
The target in assay [6] is T1, 5-hydroxytryptamine receptor 1B. The assay is described as follows: Functional activity in FLIPR assay for 5HT1B receptor. To be noted: filed as antagonist.

The source made the active and inactive calls. The rule behind the calls is not given here.

T1 sequence (P28222 whole entry): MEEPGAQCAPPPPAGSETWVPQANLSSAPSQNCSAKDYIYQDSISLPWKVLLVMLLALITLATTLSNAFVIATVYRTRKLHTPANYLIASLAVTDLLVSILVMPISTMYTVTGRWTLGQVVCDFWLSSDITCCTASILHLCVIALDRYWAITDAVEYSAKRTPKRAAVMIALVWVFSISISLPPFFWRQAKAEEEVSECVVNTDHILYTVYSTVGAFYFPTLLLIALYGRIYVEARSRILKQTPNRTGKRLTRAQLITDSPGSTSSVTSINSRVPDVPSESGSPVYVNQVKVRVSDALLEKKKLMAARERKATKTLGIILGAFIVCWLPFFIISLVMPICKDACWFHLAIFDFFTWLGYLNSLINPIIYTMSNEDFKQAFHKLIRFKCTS
Sequence of 5-hydroxytryptamine receptor 1B (Rattus norvegicus, UniProt P28564) (P28564 whole entry): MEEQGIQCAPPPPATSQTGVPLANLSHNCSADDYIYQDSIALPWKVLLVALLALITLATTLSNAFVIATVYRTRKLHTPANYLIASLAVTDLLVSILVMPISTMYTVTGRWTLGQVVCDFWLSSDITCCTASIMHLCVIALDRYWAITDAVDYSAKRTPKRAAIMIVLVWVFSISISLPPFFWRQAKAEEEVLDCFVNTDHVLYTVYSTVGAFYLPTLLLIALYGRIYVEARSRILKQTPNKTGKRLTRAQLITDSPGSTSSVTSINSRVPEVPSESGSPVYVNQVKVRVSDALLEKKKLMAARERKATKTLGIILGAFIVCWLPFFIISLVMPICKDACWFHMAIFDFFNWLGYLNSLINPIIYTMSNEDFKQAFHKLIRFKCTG
Sequence of 5-hydroxytryptamine receptor 5A (P47898 whole entry): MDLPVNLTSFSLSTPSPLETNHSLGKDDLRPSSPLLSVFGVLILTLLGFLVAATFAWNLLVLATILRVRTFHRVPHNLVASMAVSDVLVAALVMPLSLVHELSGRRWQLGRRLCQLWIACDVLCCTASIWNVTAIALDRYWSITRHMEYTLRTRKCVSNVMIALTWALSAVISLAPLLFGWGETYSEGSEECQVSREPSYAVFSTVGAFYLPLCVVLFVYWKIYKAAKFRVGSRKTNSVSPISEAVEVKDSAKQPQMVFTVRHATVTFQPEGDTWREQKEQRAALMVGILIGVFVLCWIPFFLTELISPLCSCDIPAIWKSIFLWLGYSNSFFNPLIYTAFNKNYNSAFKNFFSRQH

Usually IC50 stands for the concentration at which inhibition is half-maximal. As usually defined, the Ki is the equilibrium dissociation constant of an inhibitor or competing ligand from its target. One may read the Emax as the size of the effect at its maximum, as opposed to the concentration needed. With `CN1CCc2c(sc3ncn(CCN4CCN(c5cncc6ccccc56)CC4)c(=O)c23)C1`, in assay [1], the IC50 amounted to 35 nM. The Ki in assay [1] was 2.5 nM; in assay [2], 16.3 nM; in assay [3], 33.1 nM; in assay [5], greater than 10000 nM. Besides, the Activity entry in the assay listed under Rattus norvegicus was “Dose-dependent effect”; in assay [6] it was “Antagonist”. The Emax in assay [4] came to 4%. Also, in the assay on Mus musculus, the outcome was inactive.
